{
  "source": "patent US8507526B2",
  "about": "“4- [2- (4-methylphenylsulfanyl) phenyl] piperidine for the treatment of irritable bowel syndrome (IBS)” (H. Lundbeck A/S, priority 2007, dated 2013)",
  "tested_on": "chronic constriction nerve injury, peripheral mononeuropathy",
  "assay": "Chronic constriction nerve injury model of neuropathic pain (Von Frey filaments, Hargreaves Plantar Device)",
  "type": "in vivo",
  "settings": "rats",
  "excerpt": "A peripheral mononeuropathy was induced in the right hind limb of rats following a chronic constriction nerve injury, and the development of mechanical allodynia and thermal hyperalgesia was monitored using established behavioural tests (Von Frey filaments and the Hargreaves Plantar Device, respectively).",
  "data": [
    {"smiles": "Cc1ccc(Sc2ccccc2C2CCNCC2)cc1", "note": "[Compound I, 4-[2-(4-methylphenylsulfanyl)phenyl]piperidine]", "values": [
      {"measurement": "paw withdrawal threshold, Von Frey filaments (mechanical allodynia)", "setting": "subcutaneous 1.9, 4.8 and 7.9 mg/kg in 10% hydroxypropyl-betacyclodextrin, right hind paw", "value": "did not increase the paw withdrawal threshold"},
      {"measurement": "paw withdrawal latency, thermal hyperalgesia (Hargreaves Plantar Device)", "setting": "subcutaneous 4.8 and 7.9 mg/kg", "value": "significant increases in paw withdrawal latency"}
    ]}
  ]
}
